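Each compound was tested at five concentrations against cells in 96-well plates for 48 hours. The concentration for 50% growth inhibition is given as GI50.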 Active and inactive are the calls of the source. Rule as the data show it: active = GI50 up to about 1.1 µM and inactive = higher.
Columns and labels:
Assay in all cases: inhibition of tumour cell growth, NCI panel, 48 h
A498 = tested on: A498
ACHN = tested on: ACHN
CCRF-CEM = tested on: CCRF-CEM
DU-145 = tested on: DU-145
EKVX = tested on: EKVX
HCC 2998 = tested on: HCC 2998
HCT-116 = tested on: HCT-116
HCT-15 = tested on: HCT-15
Hs-578T = tested on: Hs-578T
MDA-MB-231 = tested on: MDA-MB-231
MDA-N = tested on: MDA-N
NCI-H226 = tested on: NCI-H226
NCI-H522 = tested on: NCI-H522
NCI/ADR-RES = tested on: NCI/ADR-RES
RXF 393 = tested on: RXF 393
SF-295 = tested on: SF-295
SF-539 = tested on: SF-539
SK-MEL-28 = tested on: SK-MEL-28
TK-10 = tested on: TK-10
UACC-257 = tested on: UACC-257

Compound	GI50 (A498)	GI50 (ACHN)	GI50 (CCRF-CEM)	GI50 (DU-145)	GI50 (EKVX)	GI50 (HCC 2998)	GI50 (HCT-116)	GI50 (HCT-15)	GI50 (Hs-578T)	GI50 (MDA-MB-231)	GI50 (MDA-N)	GI50 (NCI-H226)	GI50 (NCI-H522)	GI50 (NCI/ADR-RES)	GI50 (RXF 393)	GI50 (SF-295)	GI50 (SF-539)	GI50 (SK-MEL-28)	GI50 (TK-10)	GI50 (UACC-257)
CC(C)=CC(=O)OC1C2C(C)=CC(=O)C(O)C2(C)C2C3(O)OCC24C(CC(=O)OC14)C(C)C3O (stereo not drawn)	0.117 µM (active)	0.022 µM (active)	0.00859 µM (active)	0.00354 µM (active)	0.0577 µM (active)	0.0128 µM (active)	0.00519 µM (active)	0.0426 µM	0.00225 µM (active)	0.0168 µM (active)	0.00208 µM (active)	0.00984 µM (active)	0.00283 µM (active)	0.0724 µM (active)	0.0149 µM (active)	0.0277 µM (active)	0.00505 µM (active)	0.00461 µM (active)	0.0216 µM (active)	0.0113 µM (active)
CC(=O)O[C@@H]1C[C@@]23C[C@@]24CC[C@H](OC2OCC(O)C(O)C2O)C(C)(C)[C@@H]4CC=C3[C@]2(C)C[C@@H]3OC4(C[C@@H](C)[C@@H]3[C@@]12C)OC(O)[C@@]1(C)O[C@@H]41 (stereo partly drawn)	32.1 µM (inactive)	43.5 µM (inactive)	11.7 µM (inactive)	43.2 µM (inactive)	33.4 µM (inactive)	20.6 µM (inactive)	19.4 µM (inactive)	31.6 µM	40.4 µM (inactive)	21.1 µM (inactive)	30.9 µM (inactive)	35.4 µM (inactive)	23 µM (inactive)	43.9 µM (inactive)	15.9 µM (inactive)	25.7 µM (inactive)	20.8 µM (inactive)	41.2 µM (inactive)	36 µM (inactive)	26.9 µM (inactive)
C=C1CC(CNc2cc(Cl)nc(N)n2)C1	1.99 µM (inactive)	> 100 µM (inactive)	> 100 µM (inactive)	> 100 µM (inactive)	23.1 µM (inactive)	> 100 µM (inactive)	> 10 µM (inactive)	67.8 µM	51.4 µM (inactive)	> 100 µM (inactive)	> 100 µM (inactive)	54.2 µM (inactive)	96.8 µM (inactive)	62.7 µM (inactive)	50.9 µM (inactive)	> 100 µM (inactive)	> 100 µM (inactive)	> 100 µM (inactive)	> 100 µM (inactive)	39.6 µM (inactive)
CCCCCCc1cc2cc(-c3csc(CC#N)n3)c(=O)oc2cc1O	56 µM (inactive)	21.9 µM (inactive)	> 49.2 µM (inactive)	> 100 µM (inactive)	> 100 µM (inactive)	> 100 µM (inactive)	5.89 µM (inactive)	> 100 µM	12.4 µM (inactive)	11.7 µM (inactive)	> 100 µM (inactive)	22.9 µM (inactive)	10.4 µM (inactive)	6.35 µM (inactive)	> 33.2 µM (inactive)	36.6 µM (inactive)	5.71 µM (inactive)	> 100 µM (inactive)	> 100 µM (inactive)	> 100 µM (inactive)
O=C(NC(C(F)(F)F)(C(F)(F)F)P(=O)(c1ccccc1)c1ccccc1)C(C(F)(F)F)C(F)(F)F	> 100 µM (inactive)	16.7 µM (inactive)	41.8 µM (inactive)	> 100 µM (inactive)	> 100 µM (inactive)	> 100 µM (inactive)	18.5 µM (inactive)	30 µM	54 µM (inactive)	24.2 µM (inactive)	20.4 µM (inactive)	68.9 µM (inactive)	25.9 µM (inactive)	21.6 µM (inactive)	20.2 µM (inactive)	48.4 µM (inactive)	22.8 µM (inactive)	32.9 µM (inactive)	37.2 µM (inactive)	29.4 µM (inactive)
C=CCOC(=O)[C@@H]1C[C@@H](OC(C)(C)C)CN1C(=O)[C@@H]1[C@H]2OC(C)(C)O[C@H]2CN1C(=O)OCC1c2ccccc2-c2ccccc21	15.7 µM (inactive)	15.9 µM (inactive)	16.6 µM (inactive)	3.45 µM (inactive)	5.05 µM (inactive)	17.1 µM (inactive)	17.4 µM (inactive)	11.4 µM	21.1 µM (inactive)	17.9 µM (inactive)	18.1 µM (inactive)	21.5 µM (inactive)	0.383 µM (active)	3.68 µM (inactive)	10.2 µM (inactive)	17.9 µM (inactive)	14.8 µM (inactive)	18.1 µM (inactive)	18.4 µM (inactive)	17.5 µM (inactive)
O=c1c2ccccc2c2ccccc2c(=O)n1Cc1ccc2c(c1)OCO2	> 70.5 µM (inactive)	45.4 µM (inactive)	19.1 µM (inactive)	49.9 µM (inactive)	36.1 µM (inactive)	25.1 µM (inactive)	19.1 µM (inactive)	17 µM	37.9 µM (inactive)	> 96.2 µM (inactive)	10.1 µM (inactive)	56.1 µM (inactive)	30.8 µM (inactive)	24.9 µM (inactive)	36 µM (inactive)	35.4 µM (inactive)	27.1 µM (inactive)	56.6 µM (inactive)	> 100 µM (inactive)	57.1 µM (inactive)
OC(C1CCCC1=N/N=C1/CCCC1C(O)(C(F)(F)Cl)C(F)(F)Cl)(C(F)(F)Cl)C(F)(F)Cl (stereo not drawn)	> 10 µM (inactive)	> 10 µM (inactive)	> 10 µM (inactive)	> 10 µM (inactive)	> 10 µM (inactive)	> 10 µM (inactive)	> 10 µM (inactive)	> 10 µM	> 10 µM (inactive)	> 10 µM (inactive)	> 10 µM (inactive)	> 10 µM (inactive)	> 10 µM (inactive)	> 10 µM (inactive)	> 10 µM (inactive)	> 10 µM (inactive)	> 10 µM (inactive)	> 10 µM (inactive)	> 10 µM (inactive)	> 10 µM (inactive)
CCOC(=O)N1CCNCCN(C(=O)OCC)CCNCC1	> 100 µM (inactive)	> 100 µM (inactive)	> 100 µM (inactive)	> 100 µM (inactive)	> 100 µM (inactive)	> 100 µM (inactive)	> 100 µM (inactive)	> 100 µM	> 100 µM (inactive)	> 100 µM (inactive)	> 100 µM (inactive)	> 100 µM (inactive)	> 100 µM (inactive)	> 100 µM (inactive)	> 100 µM (inactive)	> 100 µM (inactive)	> 100 µM (inactive)	> 100 µM (inactive)	> 100 µM (inactive)	> 100 µM (inactive)
Nc1ccc(Oc2ccc(C3(c4ccc(Oc5ccc(N)c(O)c5)cc4)C4CC5C6CC7CC5C3C(C7)C6C4)cc2)cc1O	2.55 µM (inactive)	1.75 µM (inactive)	16 µM (inactive)	1.86 µM (inactive)	1.38 µM (inactive)	1.85 µM (inactive)	1.71 µM (inactive)	2.4 µM	3.13 µM (inactive)	1.89 µM (inactive)	1.36 µM (inactive)	2.72 µM (inactive)	1.83 µM (inactive)	5.62 µM (inactive)	1.7 µM (inactive)	2.77 µM (inactive)	2.61 µM (inactive)	–	3.15 µM (inactive)	2.5 µM (inactive)
COC(=O)C1(Cc2ccc3c(c2)CCC3)Cc2ccc3c(c2C1O)CCC3 (stereo not drawn)	11.7 µM (inactive)	13 µM (inactive)	> 100 µM (inactive)	11.8 µM (inactive)	8.89 µM (inactive)	17.1 µM (inactive)	11.8 µM (inactive)	> 10 µM	17.3 µM (inactive)	12.7 µM (inactive)	15.4 µM (inactive)	18.5 µM (inactive)	10.9 µM (inactive)	12.6 µM (inactive)	14.5 µM (inactive)	17.5 µM (inactive)	21.2 µM (inactive)	14.7 µM (inactive)	17.3 µM (inactive)	10.7 µM (inactive)
Cc1cc2nc(-c3c(F)cccc3F)n(Cc3c(F)cccc3F)c2cc1C	20.1 µM (inactive)	14.3 µM (inactive)	22.7 µM (inactive)	23.6 µM (inactive)	8.24 µM (inactive)	9.71 µM (inactive)	12.1 µM (inactive)	14.4 µM	19.2 µM (inactive)	14 µM (inactive)	16 µM (inactive)	15.7 µM (inactive)	12.7 µM (inactive)	18.5 µM (inactive)	23.2 µM (inactive)	13.4 µM (inactive)	18.5 µM (inactive)	16.6 µM (inactive)	29.4 µM (inactive)	16.1 µM (inactive)
COC(=O)[C@]1(c2cc3ccccc3n2S(=O)(=O)c2ccccc2)CC2CN(C(C)=O)C1CC2=O (stereo partly drawn)	9.64 µM (inactive)	1.91 µM (inactive)	0.637 µM (active)	3.46 µM (inactive)	2.02 µM (inactive)	3.23 µM (inactive)	1.89 µM (inactive)	2.48 µM	5.94 µM (inactive)	2.58 µM (inactive)	2.79 µM (inactive)	2.17 µM (inactive)	1.75 µM (inactive)	2.87 µM (inactive)	1.77 µM (inactive)	12.6 µM (inactive)	2.91 µM (inactive)	3.94 µM (inactive)	7.73 µM (inactive)	2.77 µM (inactive)
Oc1[nH]c(NCc2ccc(Cl)cc2)nc2ncnc1-2	> 100 µM (inactive)	> 100 µM (inactive)	> 100 µM (inactive)	> 100 µM (inactive)	> 100 µM (inactive)	> 100 µM (inactive)	> 100 µM (inactive)	> 100 µM	44.8 µM (inactive)	> 100 µM (inactive)	> 100 µM (inactive)	> 100 µM (inactive)	30.3 µM (inactive)	> 100 µM (inactive)	> 100 µM (inactive)	> 100 µM (inactive)	> 100 µM (inactive)	–	> 100 µM (inactive)	> 100 µM (inactive)

From ChEMBL document CHEMBL1201862, “PubChem BioAssay data set” (2004)
